Source: ChEMBL document CHEMBL1201862, “PubChem BioAssay data set” (2004)
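Five compound concentrations were applied to cells in 96-well plates for 48 hours; endpoints were derived by simple linear interpolation of the resulting dose-response curve. GI50 = concentration required for 50% inhibition of growth.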 Activity calls are given as the source filed them. Cut-off read from the data, not from the text of the source: active = GI50 up to about 1.1 µM and inactive = higher.

Assays:
Experiment in all cases: DTP human tumour cell line panel, 48 h
[1] = tested on: EKVX
[2] = tested on: HCC 2998
[3] = tested on: Hs-578T
[4] = tested on: SN12C
[5] = tested on: HL-60
[6] = tested on: TK-10
[7] = tested on: MDA-MB-231
[8] = tested on: U-251
[9] = tested on: M14
[10] = tested on: CAKI-1
[11] = tested on: SF-268
[12] = tested on: T47D
[13] = tested on: NCI/ADR-RES
[14] = tested on: UACC-257
[15] = tested on: OVCAR-3
[16] = tested on: HCT-116
[17] = tested on: A549
[18] = tested on: OVCAR-8
[19] = tested on: NCI-H226
[20] = tested on: MOLT-4

Measured: GI50

CCCn1cnc2c(SCc3ccc(Cl)cc3)nc(N)nc21
inactive: [1] 15.5 µM | [2] 20 µM | [3] 47.2 µM | [4] 19.7 µM | [5] 18.2 µM | [6] 13.5 µM | [7] 16.9 µM | [8] 23.1 µM | [9] 32.4 µM | [10] 24.8 µM | [11] 36.3 µM | [12] 18.9 µM | [13] 22.6 µM | [14] 18.5 µM | [15] 17.2 µM | [16] 19.4 µM | [17] 39.4 µM | [18] 40.1 µM

CC(=O)Nc1ccc2nc(N)n[n+]([O-])c2c1
inactive: [1] > 100 µM | [3] 92.3 µM | [4] > 100 µM | [5] > 100 µM | [6] 77.8 µM | [7] > 100 µM | [19] > 100 µM | [8] > 100 µM | [9] > 100 µM | [10] > 100 µM | [20] > 100 µM | [11] > 100 µM | [12] 79.8 µM | [13] > 100 µM | [14] > 100 µM | [15] > 100 µM | [16] > 100 µM | [17] > 100 µM | [18] > 100 µM

CC1OC(OC2C(CO)OC(O[C@H]3CC[C@@]4(C)C(=CC[C@H]5[C@@H]6C[C@@H]7O[C@](O)(CC[C@H](CO)COC8OC(CO)C(O)C(O)C8O)[C@@H](C)[C@@H]7[C@@]6(C)CC[C@@H]54)C3)C(OC3OC(C)C(O)C(O)C3O)C2O)C(O)C(O)C1O (some centres not stated)
inactive: [1] > 100 µM | [2] > 100 µM | [3] > 100 µM | [4] > 100 µM | [6] > 100 µM | [7] > 100 µM | [8] > 100 µM | [9] > 100 µM | [10] > 100 µM | [20] > 100 µM | [11] > 100 µM | [12] > 100 µM | [13] 91.4 µM | [14] > 100 µM | [15] > 100 µM | [16] > 100 µM | [17] > 100 µM | [18] > 100 µM

COc1cc(/C=C2\N=C(c3ccccc3)N(/N=C/c3cc4cc(C)ccc4nc3Cl)C2=O)cc(OC)c1OC
inactive: [1] 54.5 µM | [2] 18.8 µM | [3] 29.4 µM | [4] 61.8 µM | [5] 10.5 µM | [6] 37.8 µM | [7] 23.1 µM | [8] 18.9 µM | [9] 39.4 µM | [10] 61.7 µM | [20] 20.6 µM | [11] 35.6 µM | [12] 18 µM | [13] 28 µM | [14] 46.5 µM | [15] 26.5 µM | [16] 33.7 µM | [17] 36.4 µM | [18] 35.1 µM

O=C(CSC1=NCCN1)Nc1ccccc1
inactive: [1] 45.2 µM | [2] 23.8 µM | [3] 28.1 µM | [4] 17.5 µM | [6] 19.2 µM | [7] 20.6 µM | [8] 18.3 µM | [9] 32.9 µM | [10] 73.8 µM | [20] 52.1 µM | [11] 33.3 µM | [12] 12.9 µM | [13] 26.4 µM | [14] 17.1 µM | [15] 20.7 µM | [16] 23.8 µM | [17] > 100 µM | [18] 29.4 µM
